Test results taken from patent publication US12438175B2, “Aqueous organic-based electrolyte for redox flow battery” (KEMIWATT, priority 2019, dated 2025).
≈ marks a conversion by molar mass, not a printed value.

Tests used:
[1] = Cyclic voltammetry / linear sweep voltammetry, electrochemical parameters; format: physicochemical; details: for Peak-to-peak separation ΔEp: 100 mV/s, third cycle
Experimental: Cyclic voltammetry experiments were performed at a 100 mV/s scan rate for compounds M3CH, D3CH, D4CH, M3SH, D3SH, M4SH and D4SH in solution at pH 13 (KOH 0.1 M) or pH 14 (KOH 1 M).
The electrochemical experiments were conducted on an electrochemical working station (BioLogic Science Instruments VSP) at 25° C. using a three-electrodes electrochemical cell, where a Pt wire was employed at the counter electrode (CE), an Ag/AgCl/KCl saturated electrode immerged in a 1 M KOH solution protected from the cell by a porous frit glass served as the reference electrode (RE) and a rotating disc electrode (RDE) mounted with a glassy carbon (GC, 7.069 mm^2) disk was used as the working electrode (WE), respectively. The potential was reported relative to the normal hydrogen electrode (NHE), which was converted from the Ag/AgCl reference electrode (0.230 V versus NHE). The ohmic drop between the WE and RE is determined by current interrupt experiments and leads to a value close to 0.7069 Ω·cm^2. All cyclic voltammetry experiments were conducted by alleviating most of this resistance (85%) using the potentiostat manual ohmic drop compensation. Before each electrochemical measurement, the GC disk electrode was polished using SiC P4000 foil.
Each recorded cyclic voltammetry of the reduction and the oxidation process of a compound at a given scan rate is analyzed by measuring ip,a=anodic peak current; ip,c=cathodic peak current; v=scan rate; Ep,a=anodic peak potential; Ep,c=cathodic peak potential; ΔEp=Ep,a−Ep,c; the apparent standard redox potential E^0′=[…].
Linear sweep voltammetry (LSV) using the RDE at various rotation speed (400 up to 1 000 RPM) were performed to determine the averaged half-wave potential E1/2.
The oxidation (DO) and the reduction (DR) diffusion coefficients were calculated using Randles-Sevcik (RS) equation ip=0.4463·n^3/2·F^3/2·A·C·v^1/2·D^1/2·R^−1/2·T^−1/2=Cye·v^1/2·D^1/2, n=number of electrons exchanged during the redox process; F=faradaic number=96485 C·mol^−1; A=electrode active surface; C=redox active molecule concentration; R=gas constant=8.314 J·K^−1·mol^−1; T=bulk temperature=299 K. The experiments are conducted by cyclic voltammetry at various scan rates ranging from 10 mV/s up to 20 V/s.
A graphic of lip,al and lip,cl=f(Cte×v^1/2) is plotted, if the redox process is reversible and diffusion controlled, the peak current should be proportional to the square root of the scan rate. The diffusion coefficients (oxidation and reduction) are then calculated by taking the square of the regression lines slopes. Diffusion coefficients (oxidation and reduction processes) are evaluated by plotting the peak current versus a constant multiplied by the square root of the scan rate. The plots regression line gives a straight line with perfect correlation coefficient (100%) confirming that the redox process is reversible and diffusion controlled. The square of each slope gives the associated coefficient diffusion in cm^2 s^−1.
The apparent heterogeneous rate constant during oxidation (k^0′O)/and reduction (k^0′R) process was calculated using Gileadi's equation (C. Rüssel, W. Jaenicke, Electrochimica Acta, Vol 27, N° 12, 1745-1750, 1982) log k^0′=−0.48α+0.52 +log[(nFαvcD)/(2.303RT)]^1/2; vc is the critical scan rate, it is calculated by plotting the peak potentials versus the logarithm of the scan rates, and is more precise when a very wide range of scan rates is used, which is the case here (0.010 up to 20 V·s^−1), it is determined at the x-axis of the point of intersection of the regression lines drawn at low and high scan rates; a is the transfer coefficient that is supposed to be close to 0.5 for all presented compounds.
Peak-to-peak separation ΔEp values were determined from the third cycle of each cyclic voltammogram (FIGS. 1 and 2) and are gathered in the following table 4.
The standard redox process reversibility evaluation is performed in diluted state, at 5 mM of concentration, at pH 14 buffered with 1 M of KOH. […]

[2] = Cycling tests of redox flow battery cells in galvanostatic mode; details: Test 1: 0.5 M M3CH, pH 13.0
Experimental: General procedure: Cell tests were carried out on a BCS-815 battery cycler (Biologic) at room temperature. The redox flow battery cell was composed of an Aquivion® membrane (E98-09S Solvay) with an 80 μm thickness serving as separator sandwiched between two GFD porous graphite felts (SGL Carbon group, GFD 4.6 EA), 4.6 mm thick with an active area of 5 or 25 cm^2. The electrodes were inserted into 3 mm PVC frames surrounded by EPDM gaskets. The current collectors were made of graphite composite material provided by SGL and the assembly was compressed by two PVC end-plates. […]
Capacity utilization was calculated by determining the ratio of the discharge capacity to the theoretical capacity available in the electrolytes. Coulombic efficiency was calculated by determining the ratio of the discharge capacity to the charge capacity. Energy efficiency was calculated by determining the ratio of the discharge energy to the charge energy. The energy density was calculated by determining the ratio of the discharge energy to the total volume of posolyte (positive electrolyte) and negolyte (negative electrolyte). […]
At the end of charge, a rest of 24 hours at ocv was added before each discharge, allowing to quantify the self-discharge of this system in conditions close to its future application.

[3] = Degradation study by 1H NMR of electrolyte heated at 40° C.; format: physicochemical
Experimental: This study consists of NMR ^1H measurements of an electrolyte heated at 40° C. and kept under stirring at 300 RPM using a magnetic stirrer.
Such behavior was detailed in the literature (WO 2019/157437) and is characteristic of a nucleophilic attack i.e. of OH^− in strong alkaline environment causing the functionalized arm to be cleaved.

[4] = Solubility in aqueous solution at various pH by shake-flask method; details: thermodynamic from solid
Experimental: An aqueous solution (containing either KCl 1M, KOH 1M or H2SO4 1M) is added over 100 mg of compound by 20 μL portions until complete solubilization. We obtain an approximate range of solubility values calculated as following:
Smax˜(m/M)/V; m=mass of evaluated compound (g); M=molar mass of evaluated compound (g·mol^−1); V=added volume (L).

[5] = Cycling tests of redox flow battery cells in constant power cycling mode; details: extrapolated from 5 days; flowrate 0.5 mL/min/cm^2; negolyte 120/120/40/370 mL

O=C(O)CCCOc1ccc(O)c2c1C(=O)c1ccccc1C2=O [Compound M3CH]
E^0′ apparent standard redox potential ([1]; 5 mM, pH 14, 1 M KOH): −0.484 V vs NHE | E1/2 half-wave potential ([1]; 5 mM, pH 14, 1 M KOH, RDE): −0.484 V vs NHE | k^0′O × 10^−2 apparent heterogeneous rate constant ([1]; Gileadi's equation): 2.3 × 10^−2 cm/s | DO × 10^−6 diffusion coefficient ([1]; Randles-Sevcik): 5.2 × 10^−6 cm^2/s | Peak-to-peak separation ΔEp ([1]; pH 13 (KOH 0.1 M)): 140 mV | Peak-to-peak separation ΔEp ([1]; pH 14 (KOH 1 M)): 31 mV | solubility over state-of-charge [2]: soluble at every state-of-charge | degradation rate ([3]; 0.05 M, pH 13.9, 40° C.): roughly 15 % per month | degradation after a month ([3]; 0.4 M, pH 13.5, 0.8 M KOH, 0.3 M NaOH, 40° C.): did not undergo any degradation | solubility ([4]; aqueous H2SO4 1M solution, pH 0, aqueous buffer): 310 mM (≈ 101 mg/mL) | solubility ([4]; aqueous KOH 1M solution, pH 14, aqueous buffer): 530 mM (≈ 173 mg/mL) | Stability in cycles (−20%) [5]: 28449 cycles | Stability in days (−20%) [5]: 10942.1 days
